# Legend:
# [1] = tested on: 8505C (Thyroid Gland Carcinoma); experiment: Bliss excess, mean over the matrix (fraction); higher = more synergy
# In short: (§1)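 Cell lines in DMEM/F12 or RPMI with 10% FBS were plated in 1536-well plates, held 24 hours at 37°C, 5% CO2, then given two-drug dose matrices for 72 hours (DMSO typically 0.2%). Viability was read by CellTiter-Glo 2.0 luminescence and scaled as inhibition from 0 (vehicle wells) to 1 (blank wells). Combination Emax is the second-highest inhibition in the matrix; Bliss excess is observed combination effect minus expected EA + EB − EA·EB, EA and EB being single-agent effects.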
# [2] = tested on: COR-L279 (Small Cell Lung Carcinoma); experiment: as above
# In short: as §1
# [3] = tested on: DMS-114 (Small Cell Lung Carcinoma); experiment: as above
# In short: as §1
# [4] = tested on: ESO51 (Esophageal Adenocarcinoma); experiment: as above
# In short: as §1
# [5] = tested on: IM-95 (Gastric Carcinoma); experiment: as above
# In short: as §1
# [6] = tested on: KMS-12-BM (Plasma Cell Myeloma); experiment: as above
# In short: as §1
# [7] = tested on: KU812 (Chronic Myelogenous Leukemia); experiment: as above
# In short: as §1
# [8] = tested on: KY821 (Acute Myeloid Leukemia); experiment: as above
# In short: as §1
# M059J (Glioblastoma) = experiment: as above
# In short: as §1
# [9] = tested on: MN-60 (B-Lymphoblastic Leukemia); experiment: as above
# In short: as §1
# [10] = tested on: MOG-G-CCM (Low Grade Glioma); experiment: as above
# In short: as §1
# [11] = tested on: NCI-H520 (Squamous Cell Lung Carcinoma); experiment: as above
# In short: as §1
# [12] = tested on: NCI-H661 (Non-Small Cell Lung Carcinoma); experiment: as above
# In short: as §1
# [13] = tested on: NCI-H929 (Plasma Cell Myeloma); experiment: as above
# In short: as §1
# [14] = tested on: PC-3 (Prostate Carcinoma); experiment: as above
# In short: as §1
# RD (Rhabdomyosarcoma) = experiment: as above
# In short: as §1
# SJSA-1 (Osteosarcoma) = experiment: as above
# In short: as §1
# [15] = tested on: SUP-B15 (B-Lymphoblastic Leukemia); experiment: as above
# In short: as §1
# [16] = tested on: VMRC-RCZ (Kidney Carcinoma); experiment: as above
# In short: as §1
# [17] = tested on: JHH-4 (Hepatocellular Carcinoma); experiment: combination Emax (second highest fraction inhibited in the dose matrix, 72 h); higher = more inhibition; extreme values may be limits of the assay
# In short: as §1
# 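For Bliss excess, mean over the matrix in this document: after 72 h of two-drug dosing.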
SMILES,Bliss excess [1],Bliss excess [2],Bliss excess [3],Bliss excess [4],Bliss excess [5],Bliss excess [6],Bliss excess [7],Bliss excess [8],Bliss excess (M059J (Glioblastoma)),Bliss excess [9],Bliss excess [10],Bliss excess [11],Bliss excess [12],Bliss excess [13],Bliss excess [14],Bliss excess (RD (Rhabdomyosarcoma)),Bliss excess (SJSA-1 (Osteosarcoma)),Bliss excess [15],Bliss excess [16],combination Emax [17]
"CN(CCO)CC[C@H](CSc1ccccc1)Nc1ccc(S(=O)(=O)NC(=O)c2ccc(N3CCC([C@@H](O)c4ccccc4-c4ccc(Cl)cc4)CC3)cc2)cc1S(=O)(=O)C(F)(F)F [AZD4320] + Cn1cnc2c(F)c(Nc3ccc(Br)cc3Cl)c(C(=O)NOCCO)cc21 [Selumetinib] (first compound max 1 µM, 7x7, partner max 3 µM)",0.0641,-0.0029,0.0226,0.0355,0.0132,-0.024,0.0375,0.0262,-0.0289,0.0026,-0.136,-0.0205,0.0414,0.0597,-0.0148,0.0308,0.0413,0.0853,-0.0195,0.326
"Cc1cc2ncnn2cc1Nc1ncc2c(n1)n(C1CCOCC1)c(=O)n2C [AZD7648] + CN(C)CCCOc1ccc(-c2ccc3ncc4c(c3c2)n(C2CCOCC2)c(=O)n4C)cn1 [AZD0156] (first compound max 10 µM, 7x7, partner max 1 µM)",-0.0003,-0.0044,-0.0268,-0.0151,0.0121,0.0032,0.0197,0.0429,0.0149,-0.0405,-0.0609,0.0833,0.0202,-0.0727,0.0109,-0.0142,-0.0385,-0.0084,-0.0314,0.247
"CC(=O)c1c(C)c2cnc(Nc3ccc(N4CCNCC4)cn3)nc2n(C2CCCC2)c1=O [Palbociclib] + CC1(C)CCC(CN2CCN(c3ccc(C(=O)NS(=O)(=O)c4ccc(NCC5CCOCC5)c([N+](=O)[O-])c4)c(Oc4cnc5[nH]ccc5c4)c3)CC2)=C(c2ccc(Cl)cc2)C1 [Venetoclax] (first compound max 10 µM, 7x7, partner max 1 µM)",-0.0584,-0.002,-0.0282,-0.0078,-0.0399,0.0637,-0.0401,0.0485,-0.0511,-0.0666,-0.0493,-0.0209,-0.0593,-0.112,-0.0582,-0.0486,-0.0295,-0.0176,-0.0479,0.328
"COc1cccc(OCCCN)c1-c1cc(Nc2cnc(C#N)cn2)n[nH]1 [Prexasertib] + C=CCn1c(=O)c2cnc(Nc3ccc(N4CCN(C)CC4)cc3)nc2n1-c1cccc(C(C)(C)O)n1 [AZD1775] (first compound max 1 µM, partner max 1 µM)",0.0849,0.0823,0.0129,-0.0153,0.0876,0.0595,-0.0401,0.063,0.178,0.0534,0.0748,0.0421,-0.0287,0.15,0.0469,0.0732,-0.0243,0.0224,-0.02,0.701
